Experimental data: patent US8575183B2, “Heterocyclic compounds and their uses” (priority 2010, dated 2013)

molecular target: T1, PI3k δ (Homo sapiens, UniProt O00329); assay: biochemical; format: biochemical; settings: not given
T1 construct: Full length p110 subunits of PI3k α, β and δ; polyHis (N); made in house; host or cells: Sf9 insect cells (baculovirus)
Method: Full length p110 subunits of PI3k α, β and δ, N-terminally labeled with polyHis tag, were coexpressed with p85 with Baculo virus expression vectors in sf9 insect cells. P110/p85 heterodimers were purified by sequential Ni-NTA, Q-HP, Superdex-100 chromatography. Purified α, β and δ isozymes were stored at −20° C. in 20 mM Tris, pH 8, 0.2M NaCl, 50% glycerol, 5 mM DTT, 2 mM Na cholate. […] The γ isozyme was purified by sequential Ni-NTA, Superdex-200, Q-HP chromatography. The γ isozyme was stored frozen at −80° C. in NaH2PO4, pH 8, 0.2M NaCl, 1% ethylene glycol, 2 mM β-mercaptoethanol.
Phospatidyl inositol phosphoacceptor, Ptdlns(4,5)P2 P4508, was from Echelon Biosciences. […] Test compounds were dissolved in dimethyl sulfoxide and diluted with three-fold serial dilutions. The compound in DMSO (1 μL) was added per test well, and the inhibition relative to reactions containing no compound, with and without enzyme was determined. After assay incubation at rt, the reaction was stopped and residual ATP determined by addition of an equal volume of a commercial ATP bioluminescence kit (Perkin Elmer EasyLite) according to the manufacturer's instructions, and detected using a AnalystGT luminometer.

T1 sequence (O00329 whole entry): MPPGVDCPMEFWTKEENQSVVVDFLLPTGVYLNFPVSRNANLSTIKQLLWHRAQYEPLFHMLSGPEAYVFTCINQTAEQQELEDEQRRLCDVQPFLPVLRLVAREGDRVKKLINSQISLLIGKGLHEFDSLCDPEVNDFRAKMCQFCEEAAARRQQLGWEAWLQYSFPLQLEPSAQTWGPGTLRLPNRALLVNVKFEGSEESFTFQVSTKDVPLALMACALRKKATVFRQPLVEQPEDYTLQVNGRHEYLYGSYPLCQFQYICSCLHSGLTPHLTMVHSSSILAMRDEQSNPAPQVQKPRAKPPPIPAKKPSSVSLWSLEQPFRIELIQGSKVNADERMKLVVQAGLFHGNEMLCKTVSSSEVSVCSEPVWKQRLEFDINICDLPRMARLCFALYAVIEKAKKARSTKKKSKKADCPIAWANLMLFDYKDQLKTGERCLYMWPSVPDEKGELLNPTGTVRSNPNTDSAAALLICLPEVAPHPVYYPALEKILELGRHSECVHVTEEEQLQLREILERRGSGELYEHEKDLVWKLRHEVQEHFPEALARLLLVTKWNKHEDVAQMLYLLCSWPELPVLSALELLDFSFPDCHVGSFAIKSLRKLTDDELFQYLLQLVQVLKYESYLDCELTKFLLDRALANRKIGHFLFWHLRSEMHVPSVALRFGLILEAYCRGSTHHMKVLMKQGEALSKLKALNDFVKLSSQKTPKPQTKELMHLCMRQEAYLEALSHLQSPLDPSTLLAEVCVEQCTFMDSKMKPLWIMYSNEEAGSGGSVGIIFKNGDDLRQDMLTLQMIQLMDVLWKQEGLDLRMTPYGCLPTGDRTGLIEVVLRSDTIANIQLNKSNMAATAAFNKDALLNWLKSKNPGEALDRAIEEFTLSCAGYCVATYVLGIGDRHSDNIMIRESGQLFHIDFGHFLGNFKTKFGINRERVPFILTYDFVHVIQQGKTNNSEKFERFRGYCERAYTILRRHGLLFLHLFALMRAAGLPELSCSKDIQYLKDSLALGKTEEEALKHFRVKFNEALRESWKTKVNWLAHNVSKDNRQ
T1 sequence (P27986 whole entry partner): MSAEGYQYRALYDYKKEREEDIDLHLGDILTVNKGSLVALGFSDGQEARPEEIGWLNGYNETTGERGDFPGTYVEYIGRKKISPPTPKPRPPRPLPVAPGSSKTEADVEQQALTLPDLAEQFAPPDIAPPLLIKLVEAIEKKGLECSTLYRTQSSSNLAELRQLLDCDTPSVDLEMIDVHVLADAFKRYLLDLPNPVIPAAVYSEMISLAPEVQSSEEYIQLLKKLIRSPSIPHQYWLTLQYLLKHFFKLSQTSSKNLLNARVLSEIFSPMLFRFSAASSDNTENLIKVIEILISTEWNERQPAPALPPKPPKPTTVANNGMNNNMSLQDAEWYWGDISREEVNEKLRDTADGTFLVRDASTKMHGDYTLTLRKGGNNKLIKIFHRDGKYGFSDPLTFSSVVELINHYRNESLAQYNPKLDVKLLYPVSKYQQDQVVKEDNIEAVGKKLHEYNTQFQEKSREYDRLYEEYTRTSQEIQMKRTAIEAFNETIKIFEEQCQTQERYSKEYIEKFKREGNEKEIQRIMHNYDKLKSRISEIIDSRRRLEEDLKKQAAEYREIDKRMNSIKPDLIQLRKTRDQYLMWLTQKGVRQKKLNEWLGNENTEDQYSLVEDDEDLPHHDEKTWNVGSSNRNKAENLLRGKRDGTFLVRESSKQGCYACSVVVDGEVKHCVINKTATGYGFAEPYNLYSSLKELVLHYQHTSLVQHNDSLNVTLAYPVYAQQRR

**Q.** How did the Ki turn out when `CC(Nc1ncnc(N)c1C#N)c1nc2ncccc2n1-c1ccccn1` (centres unmarked) was run?
**A.** 2900 nM

**Q.** `CC(Nc1ncnc(N)c1C#N)c1nc2cccc(S(C)(=O)=O)c2n1C1CC1` (centres unmarked) was tested. Which Ki did it give?
**A.** 3.76 nM

**Q.** `C[C@@H](Nc1ncnc(N)c1C#N)c1nc2ccc(F)cc2n1-c1cncc(-c2ccccn2)c1` [4-amino-6-(((1R)-1-(1-(2,3′-bipyridin-5′-yl)-6-fluoro-1H-benzimidazol-2-yl)ethyl)amino)-5-pyrimidinecarbonitrile] was tested. Which Ki did it give?
**A.** 1190 nM

**Q.** For `C[C@H](Nc1ncnc(N)c1C#N)c1nc2ccc(F)cc2n1-c1cncc(-c2ccccn2)c1` [4-amino-6-(((1S)-1-(1-(2,3′-bipyridin-5′-yl)-6-fluoro-1H-benzimidazol-2-yl)ethyl)amino)-5-pyrimidinecarbonitrile], which Ki is on record?
**A.** 248 nM

same assay, conditions: read-out: PI3k δ Ki

**Q.** How did the Ki turn out when `CNC(=O)c1cccc2nc([C@H](C)Nc3ncnc4[nH]cnc34)n(C3CC3)c12` [1-cyclopropyl-N-methyl-2-((1S)-1-(9H-purin-6-ylamino)ethyl)-1H-benzimidazole-7-carboxamide] was run?
**A.** 14.6 nM

**Q.** With `C[C@@H](Nc1ncnc(N)c1C#N)c1nc2cccc(C#N)c2n1-c1cncc(F)c1` [2-((1R)-1-((6-amino-5-cyano-4-pyrimidinyl)amino)ethyl)-1-(5-fluoro-3-pyridinyl)-1H-benzimidazole-7-carbonitrile] as the molecule, how does the Ki read?
**A.** 325 nM

**Q.** For `CNC(=O)c1cccc2nc([C@@H](C)Nc3ncnc(N)c3C#N)n(-c3cncc(F)c3)c12` [2-((1R)-1-((6-amino-5-cyano-4-pyrimidinyl)amino)ethyl)-1-(5-fluoro-3-pyridinyl)-N-methyl-1H-benzimidazole-7-carboxamide], which Ki is on record?
**A.** 1370 nM

**Q.** Which Ki does the source give for `CNC(=O)c1cccc2nc([C@H](C)Nc3ncnc(N)c3-c3ccc(S(C)(=O)=O)cc3)n(C3CC3)c12` [2-((1S)-1-((6-amino-5-(4-(methylsulfonyl)phenyl)-4-pyrimidinyl)amino)ethyl)-1-cyclopropyl-N-methyl-1H-benzimidazole-7-carboxamide] here?
**A.** 10.5 nM

**Q.** `CNC(=O)c1cccc2nc([C@H](C)Nc3ncnc(N)c3S(C)(=O)=O)n(C3CC3)c12` [2-((1S)-1-((6-amino-5-(methylsulfonyl)-4-pyrimidinyl)amino)ethyl)-1-cyclopropyl-N-methyl-1H-benzimidazole-7-carboxamide] was tested. Which Ki did it give?
**A.** 30 nM

**Q.** How did the Ki turn out when `CNC(=O)c1cccc2nc([C@H](C)Nc3ncnc(N)c3C(F)(F)F)n(C3CC3)c12` [2-((1S)-1-((6-amino-5-(trifluoromethyl)-4-pyrimidinyl)amino)ethyl)-1-cyclopropyl-N-methyl-1H-benzimidazole-7-carboxamide] was run?
**A.** 37 nM

**Q.** How did the Ki turn out when `C[C@H](Nc1ncnc(N)c1C#N)c1nc2cccc(C#N)c2n1-c1cncc(F)c1` [2-((1S)-1-((6-amino-5-cyano-4-pyrimidinyl)amino)ethyl)-1-(5-fluoro-3-pyridinyl)-1H-benzimidazole-7-carbonitrile] was run?
**A.** 171 nM

**Q.** With `CNC(=O)c1cccc2nc([C@H](C)Nc3ncnc(N)c3C#N)n(-c3cncc(F)c3)c12` [2-((1S)-1-((6-amino-5-cyano-4-pyrimidinyl)amino)ethyl)-1-(5-fluoro-3-pyridinyl)-N-methyl-1H-benzimidazole-7-carboxamide] as the molecule, how does the Ki read?
**A.** 10.2 nM

**Q.** For `CNC(=O)c1cccc2nc([C@H](C)Nc3ncnc(N)c3C#N)n(C3CC3)c12` [2-((1S)-1-((6-amino-5-cyano-4-pyrimidinyl)amino)ethyl)-1-cyclopropyl-N-methyl-1H-benzimidazole-7-carboxamide], which Ki is on record?
**A.** 7.1 nM

**Q.** For `CNC(=O)c1cccc2nc([C@H](C)Nc3ncnc(N)c3C#N)c(-c3cncc(F)c3)n12` [2-((1S)-1-((6-amino-5-cyano-4-pyrimidinyl)amino)ethyl)-3-(5-fluoro-3-pyridinyl)-N-methylimidazo[1,2-a]pyridine-5-carboxamide], which Ki is on record?
**A.** 81.1 nM

**Q.** How did the Ki turn out when `C[C@H](Nc1ncnc(N)c1C#N)c1nc2cccc(C(=O)NC3CC3)c2n1C1CC1` [2-((1S)-1-((6-amino-5-cyano-4-pyrimidinyl)amino)ethyl)-N,1-dicyclopropyl-1H-benzimidazole-7-carboxamide] was run?
**A.** 17.5 nM

**Q.** Which Ki does the source give for `C[C@H](Nc1ncnc(N)c1C#N)c1nc2cccc(C(=O)NC3CCCC3)c2n1C1CC1` [2-((1S)-1-((6-amino-5-cyano-4-pyrimidinyl)amino)ethyl)-N-cyclopentyl-1-cyclopropyl-1H-benzimidazole-7-carboxamide] here?
**A.** 18.4 nM

**Q.** Which Ki does the source give for `C[C@H](Nc1ncnc(N)c1C#N)c1nc2cccc(C(=O)NC3CC3)n2c1-c1ccccc1` [2-((1S)-1-((6-amino-5-cyano-4-pyrimidinyl)amino)ethyl)-N-cyclopropyl-3-phenylimidazo[1,2-a]pyridine-5-carboxamide] here?
**A.** 17.4 nM

**Q.** How did the Ki turn out when `CNC(=O)c1cccc2nc([C@H](C)Nc3ncnc(N)c3C#N)c(-c3ccccc3)n12` [2-((1S)-1-((6-amino-5-cyano-4-pyrimidinyl)amino)ethyl)-N-methyl-3-phenylimidazo[1,2-a]pyridine-5-carboxamide] was run?
**A.** 26.2 nM

**Q.** How did the Ki turn out when `C[C@H](Nc1ncnc(N)c1C#N)c1nc2cccc(C(=O)NC(C)(C)C)c2n1C1CC1` [2-((1S)-1-((6-amino-5-cyano-4-pyrimidinyl)amino)ethyl)-N-tert-butyl-1-cyclopropyl-1H-benzimidazole-7-carboxamide] was run?
**A.** 73.8 nM

**Q.** For `CC[C@H](Nc1ncnc(N)c1C#N)c1nc2cccc(C(=O)NC)c2n1C1CC1` [2-((1S)-1-((6-amino-5-cyano-4-pyrimidinyl)amino)propyl)-1-cyclopropyl-N-methyl-1H-benzimidazole-7-carboxamide], which Ki is on record?
**A.** 39 nM

**Q.** `CNC(=O)c1cccc(-n2c([C@@H](C)Nc3ncnc(N)c3C#N)nc3ccc(F)cc32)c1` [3-(2-((1R)-1-((6-amino-5-cyano-4-pyrimidinyl)amino)ethyl)-6-fluoro-1H-benzimidazol-1-yl)-N-methylbenzamide] was tested. Which Ki did it give?
**A.** 4670 nM

**Q.** How did the Ki turn out when `CNC(=O)c1cccc(-n2c([C@H](C)Nc3ncnc(N)c3C#N)nc3ccc(F)cc32)c1` [3-(2-((1S)-1-((6-amino-5-cyano-4-pyrimidinyl)amino)ethyl)-6-fluoro-1H-benzimidazol-1-yl)-N-methylbenzamide] was run?
**A.** 18.3 nM

**Q.** With `CC(Nc1ncnc(N)c1C#N)c1sc2ccccc2c1-c1cc(F)cc(F)c1` (centres unmarked) [4-amino-6-((1-(3-(3,5-difluorophenyl)-1-benzothiophen-2-yl)ethyl)amino)-5-pyrimidinecarbonitrile] as the molecule, how does the Ki read?
**A.** 3.33 nM

**Q.** Which Ki does the source give for `CC(Nc1ncnc(N)c1C#N)c1sc2ccccc2c1-c1ccccc1` (centres unmarked) [4-amino-6-((1-(3-phenyl-1-benzothiophen-2-yl)ethyl)amino)-5-pyrimidinecarbonitrile] here?
**A.** 2.66 nM

**Q.** Which Ki does the source give for `C[C@@H](Nc1ncnc(N)c1C#N)c1nc2c(F)cc(F)cc2n1-c1cc(F)cc(F)c1` [4-amino-6-(((1R)-1-(1-(3,5-difluorophenyl)-4,6-difluoro-1H-benzimidazol-2-yl)ethyl)amino)-5-pyrimidinecarbonitrile] here?
**A.** 251 nM

**Q.** `C[C@@H](Nc1ncnc(N)c1C#N)c1nc2c(F)cccc2n1-c1cc(F)cc(F)c1` [4-amino-6-(((1R)-1-(1-(3,5-difluorophenyl)-4-fluoro-1H-benzimidazol-2-yl)ethyl)amino)-5-pyrimidinecarbonitrile] was tested. Which Ki did it give?
**A.** 4180 nM

**Q.** Which Ki does the source give for `C[C@@H](Nc1ncnc(N)c1C#N)c1nc2ccc(F)cc2n1-c1cccc(C#N)c1` [4-amino-6-(((1R)-1-(1-(3-cyanophenyl)-6-fluoro-1H-benzimidazol-2-yl)ethyl)amino)-5-pyrimidinecarbonitrile] here?
**A.** 411 nM

**Q.** With `C[C@@H](Nc1ncnc(N)c1C#N)c1nc2cccc(S(C)(=O)=O)c2n1C1CC1` [4-amino-6-(((1R)-1-(1-cyclopropyl-7-(methylsulfonyl)-1H-benzimidazol-2-yl)ethyl)amino)-5-pyrimidinecarbonitrile] as the molecule, how does the Ki read?
**A.** 1000 nM

**Q.** How did the Ki turn out when `C[C@@H](Nc1ncnc(N)c1C#N)c1nc2c(F)cc(F)cc2n1-c1cccnc1` [4-amino-6-(((1R)-1-(4,6-difluoro-1-(3-pyridinyl)-1H-benzimidazol-2-yl)ethyl)amino)-5-pyrimidinecarbonitrile] was run?
**A.** 1290 nM

**Q.** Which Ki does the source give for `C[C@@H](Nc1ncnc(N)c1C#N)c1nc2cc(F)ccc2n1-c1ccccn1` [4-amino-6-(((1R)-1-(5-fluoro-1-(2-pyridinyl)-1H-benzimidazol-2-yl)ethyl)amino)-5-pyrimidinecarbonitrile] here?
**A.** 7 nM

**Q.** For `C[C@@H](Nc1ncnc(N)c1C#N)c1nc2cc(F)ccc2n1-c1cncc(F)c1` [4-amino-6-(((1R)-1-(5-fluoro-1-(5-fluoro-3-pyridinyl)-1H-benzimidazol-2-yl)ethyl)amino)-5-pyrimidinecarbonitrile], which Ki is on record?
**A.** 2820 nM

**Q.** For `C[C@@H](Nc1ncnc(N)c1C#N)c1nc2ccc(F)cc2n1-c1cccc(-c2ccccn2)c1` [4-amino-6-(((1R)-1-(6-fluoro-1-(3-(2-pyridinyl)phenyl)-1H-benzimidazol-2-yl)ethyl)amino)-5-pyrimidinecarbonitrile], which Ki is on record?
**A.** 132 nM

**Q.** With `C[C@@H](Nc1ncnc(N)c1C#N)c1nc2ccc(F)cc2n1-c1cccc(F)n1` [4-amino-6-(((1R)-1-(6-fluoro-1-(6-fluoro-2-pyridinyl)-1H-benzimidazol-2-yl)ethyl)amino)-5-pyrimidinecarbonitrile] as the molecule, how does the Ki read?
**A.** 755 nM

**Q.** For `C[C@H](Nc1ncnc(N)c1C#N)c1nc2ncccc2n1-c1ccccn1` [4-amino-6-(((1S)-1-(1-(2-pyridinyl)-1H-imidazo[4,5-b]pyridin-2-yl)ethyl)amino)-5-pyrimidinecarbonitrile], which Ki is on record?
**A.** 1620 nM

**Q.** `C[C@H](Nc1ncnc(N)c1C#N)c1nc2cccc(S(C)(=O)=O)c2n1Cc1cc(F)cc(F)c1` [4-amino-6-(((1S)-1-(1-(3,5-difluorobenzyl)-7-(methylsulfonyl)-1H-benzimidazol-2-yl)ethyl)amino)-5-pyrimidinecarbonitrile] was tested. Which Ki did it give?
**A.** 295 nM
